What was measured:
Type in all cases: in vivo
[1] = system: Digitaria sanguinalis (DIGSA); test: A. Herbicidal pre-emergence efficacy, DIGSA; details: scored visually after about 3 weeks vs untreated controls
In short: (§1)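 Applied before emergence onto covering soil at rates of 1280 g/ha or less, using 600 L/ha spray water with 0.5% additive. Scoring: visual % efficacy after ~3 weeks, greenhouse.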

Poa annua (POAAN) [2] = test: A. Herbicidal pre-emergence efficacy, POAAN
In short: as §1

Setaria viridis (SETVI) [3] = test: A. Herbicidal pre-emergence efficacy, SETVI
In short: as §1

Stellaria media (STEME) [4] = test: A. Herbicidal pre-emergence efficacy, STEME
In short: as §1

[5] = system: Amaranthus retroflexus (AMARE); test: A. Herbicidal pre-emergence efficacy, AMARE
In short: as §1

[6] = system: Abutilon theophrasti (ABUTH); test: B. Herbicidal post-emergence efficacy, ABUTH; details: rated visually after about 3 weeks
In short: (§2)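 First, seeds were sown in sandy loam and grown 2 to 3 weeks under controlled greenhouse conditions. Next, foliage at the one-leaf stage received the formulated compound in water with 0.5% additive (600 L/ha, 1280 g/ha or less). Finally, damage was rated visually after about 3 weeks against untreated plants.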

[7] = system: Echinochloa crus-galli (ECHCG); test: B. Herbicidal post-emergence efficacy, ECHCG; details: rated visually after about 3 weeks
In short: as §2

Kochia scoparia (KCHSC) [8] = test: B. Herbicidal post-emergence efficacy, KCHSC; details: 1280 g/ha
In short: as §2

Lolium rigidum (LOLRI) [9] = test: B. Herbicidal post-emergence efficacy, LOLRI; details: 1280 g/ha
Procedure: Seeds of mono- and dicotyledonous weed plants were placed in plastic pots in sandy loam soil (doubly sown with in each case one species of mono- or dicotyledonous weed plants per pot), covered with soil and cultivated in a greenhouse under controlled growth conditions. 2 to 3 weeks after sowing, the test plants were treated at the one-leaf stage. The compounds of the invention, formulated in the form of wettable powders (WP) or as emulsion concentrates (EC), were applied onto the green parts of the plants as aqueous suspension or emulsion with addition of 0.5% additive at a water application rate of 600 liters per hectare (converted). After the test plants had been kept in the greenhouse under optimum growth conditions for about 3 weeks, the activity of the preparations was rated visually in comparison to untreated controls.
For example, • 100% efficacy=plants have died, • 0% efficacy=like untreated control plants
Tables B1a to B12c below show the effects of selected inventive compounds of the general formula (I) according to table 1 on various harmful plants at an application rate corresponding to 1280 g/ha or less, which were obtained by the experimental procedure mentioned above.

Poa annua (POAAN) [10] = test: B. Herbicidal post-emergence efficacy, POAAN
In short: as §2

Stellaria media (STEME) [11] = test: B. Herbicidal post-emergence efficacy, STEME
In short: as §2

Veronica persica (VERPE) [12] = test: B. Herbicidal post-emergence efficacy, VERPE
In short: as §2

[13] = system: Amaranthus retroflexus (AMARE); test: B. Herbicidal post-emergence efficacy, AMARE
In short: as §2

[14] = system: Amaranthus retroflexus (AMARE); test: C. Herbicidal pre-emergence efficacy, AMARE; details: scored after about 3 weeks
Text: (§3) Seeds of monocotyledonous and dicotyledonous weed plants and crop plants were placed in plastic or organic planting pots and covered with soil. The compounds of the invention, formulated in the form of wettable powders (WP) or as emulsion concentrates (EC), were then applied to the surface of the covering soil as aqueous suspension or emulsion with addition of 0.5% additive at a water application rate equivalent to 600 l/ha (converted). After the treatment, the pots were placed in a greenhouse and kept under good growth conditions for the test plants. After about 3 weeks, the efficacy of the preparations was scored visually in comparison with untreated controls as percentages. For example, • 100% efficacy=plants have died, • 0% efficacy=like untreated control plants.
(§4) Tables C1a to C14b below show the effects of selected compounds of the general formula (I) according to table 1 on various harmful plants at an application rate corresponding to 320 g/ha or less, which were obtained by the experimental procedure mentioned above.

[15] = system: Digitaria sanguinalis (DIGSA); test: C. Herbicidal pre-emergence efficacy, DIGSA; details: scored after about 3 weeks
Text: as §3, §4

[16] = system: Echinochloa crus-galli (ECHCG); test: C. Herbicidal pre-emergence efficacy, ECHCG; details: 320 g/ha, scored after about 3 weeks
Text: as §3, §4

Lolium rigidum (LOLRI) [17] = test: C. Herbicidal pre-emergence efficacy, LOLRI; details: 320 g/ha, scored after about 3 weeks
Text: as §3, §4

Setaria viridis (SETVI) [18] = test: C. Herbicidal pre-emergence efficacy, SETVI; details: 320 g/ha, scored after about 3 weeks
Text: as §3, §4

Veronica persica (VERPE) [19] = test: C. Herbicidal pre-emergence efficacy, VERPE; details: 320 g/ha, scored after about 3 weeks
Text: as §3, §4

Viola tricolor (VIOTR) [20] = test: C. Herbicidal pre-emergence efficacy, VIOTR
Text: as §3, §4

Kochia scoparia (KCHSC) [21] = test: C. Herbicidal pre-emergence efficacy, KCHSC; details: application rate 320 g/ha
Text: as §3, §4

Zea mays (ZEAMX) [22] = test: D. Pre-emergence effect on useful plants, ZEAMX; details: useful plant
Text: as §3
Tables D1a to D5b below show the effects of selected compounds of the general formula (I) according to table 1 on various useful plants at an application rate corresponding to 320 g/ha or less, which were obtained by the experimental procedure mentioned above.

[23] = system: Abutilon theophrasti (ABUTH); test: E. Herbicidal post-emergence efficacy, ABUTH; details: application rate 320 g/ha
Procedure: (§5) Seeds of monocotyledonous and dicotyledonous weeds and crop plants were placed in sandy loam in plastic or organic planting pots, covered with soil and cultivated in a greenhouse under controlled growth conditions. 2 to 3 weeks after sowing, the test plants were treated at the one-leaf stage. The compounds of the invention, formulated in the form of wettable powders (WP) or as emulsion concentrates (EC), were then sprayed onto the green parts of the plants as aqueous suspension or emulsion with addition of 0.5% additive at a water application rate of 600 l/ha (converted). After the test plants had been kept in the greenhouse under optimum growth conditions for about 3 weeks, the activity of the preparations was rated visually in comparison to untreated controls.
(§6) For example, • 100% efficacy=plants have died, • 0% action=like untreated control plants.
(§7) Tables E1a to E12b below show the effects of selected compounds of the general formula (I) according to table 1 on various harmful plants at an application rate corresponding to 320 g/ha or less, which were obtained by the experimental procedure mentioned above.

[24] = system: Amaranthus retroflexus (AMARE); test: E. Herbicidal post-emergence efficacy, AMARE
Procedure: as §5, §6, §7

[25] = system: Echinochloa crus-galli (ECHCG); test: E. Herbicidal post-emergence efficacy, ECHCG; details: application rate 320 g/ha
Procedure: as §5, §6, §7

[26] = system: Pharbitis purpurea (PHBPU); test: E. Herbicidal post-emergence efficacy, PHBPU; details: application rate 320 g/ha
Procedure: as §5, §6, §7

Veronica persica (VERPE) [27] = test: E. Herbicidal post-emergence efficacy, VERPE
Procedure: as §5, §6, §7

Viola tricolor (VIOTR) [28] = test: E. Herbicidal post-emergence efficacy, VIOTR; details: application rate 320 g/ha
Procedure: as §5, §6, §7

Kochia scoparia (KCHSC) [29] = test: E. Herbicidal post-emergence efficacy, KCHSC; details: application rate 320 g/ha
Procedure: as §5, §6, §7

Zea mays (ZEAMX) [30] = test: F. Post-emergence effect on useful plants, ZEAMX; details: useful plant
Procedure: as §5, §6
(§8) Tables F1a to F4 below show the effects of selected compounds of the general formula (I) according to table 1 on various useful plants at an application rate corresponding to 320 g/ha or less, which were obtained by the experimental procedure mentioned above.

[31] = system: Triticum aestivum (TRZAS); test: F. Post-emergence effect on useful plants, TRZAS; details: useful plant
Procedure: as §5, §6, §8

For `Cc1cccc(Oc2ncc(Cl)cn2)c1OS(=O)(=O)CC1CC1(Cl)Cl` (stereo not shown) [Example I-76], the “Pre-emergence efficacy against DIGSA” value ([1]; 320 g/ha) was 90%, the “Pre-emergence efficacy against DIGSA” value ([1]; 1280 g/ha) was 90% and the “Pre-emergence efficacy against POAAN” value (Poa annua (POAAN) [2]; dosage 320 g/ha) was 90%. For the same molecule, the “Pre-emergence efficacy against POAAN” value (Poa annua (POAAN) [2]; dosage 1280 g/ha) was 90%, the “Pre-emergence efficacy against SETVI” value (Setaria viridis (SETVI) [3]; dosage 320 g/ha) was 100% and the “Pre-emergence efficacy against SETVI” value (Setaria viridis (SETVI) [3]; dosage 1280 g/ha) was 100%. The “Pre-emergence efficacy against STEME” value (Stellaria media (STEME) [4]; dosage 80 g/ha) was 90%, the “Pre-emergence efficacy against STEME” value (Stellaria media (STEME) [4]; dosage 320 g/ha) was 90% and the “Pre-emergence efficacy against STEME” value (Stellaria media (STEME) [4]; dosage 1280 g/ha) was 100%. The “Pre-emergence efficacy against AMARE in %” value ([5]; 320 g/ha) was 90%, the “Pre-emergence efficacy against AMARE in %” value ([5]; 1280 g/ha) was 100% and the “Post-emergence efficacy against ABUTH in %” value ([6]; 80 g/ha) was 90%. For the same molecule, the “Post-emergence efficacy against ABUTH in %” value ([6]; 320 g/ha) was 90%, the “Post-emergence efficacy against ABUTH in %” value ([6]; 1280 g/ha) was 100% and the “Post-emergence efficacy against ECHCG in %” value ([7]; 320 g/ha) was 90%. For the same molecule, the “Post-emergence efficacy against ECHCG in %” value ([7]; 1280 g/ha) was 100%, the “Post-emergence efficacy against KCHSC” value (Kochia scoparia (KCHSC) [8]) was 90% and the “Post-emergence efficacy against LOLRI” value (Lolium rigidum (LOLRI) [9]) was 90%. For the same molecule, the “Post-emergence efficacy against POAAN” value (Poa annua (POAAN) [10]; 320 g/ha) was 90%, the “Post-emergence efficacy against POAAN” value (Poa annua (POAAN) [10]; 1280 g/ha) was 100% and the “Post-emergence efficacy against STEME” value (Stellaria media (STEME) [11]; 80 g/ha) was 90%. For the same molecule, the “Post-emergence efficacy against STEME” value (Stellaria media (STEME) [11]; 320 g/ha) was 100%, the “Post-emergence efficacy against STEME” value (Stellaria media (STEME) [11]; 1280 g/ha) was 100% and the “Post-emergence efficacy against VERPE” value (Veronica persica (VERPE) [12]; 80 g/ha) was 90%. For the same molecule, the “Post-emergence efficacy against VERPE” value (Veronica persica (VERPE) [12]; 320 g/ha) was 100%, the “Post-emergence efficacy against VERPE” value (Veronica persica (VERPE) [12]; 1280 g/ha) was 100% and the “Post-emergence efficacy against AMARE” value ([13]; 80 g/ha) was 90%. The “Post-emergence efficacy against AMARE” value ([13]; 320 g/ha) was 100% and the “Post-emergence efficacy against AMARE” value ([13]; 1280 g/ha) was 100%.
`Cc1cccc(Oc2ncc(Cl)cn2)c1OS(=O)(=O)CC=C(Cl)Cl` [Example I-83] was tested, and the “Pre-emergence efficacy against AMARE” value ([14]; 80 g/ha) was 80%, the “Pre-emergence efficacy against AMARE” value ([14]; 320 g/ha) was 100% and the “Pre-emergence efficacy against DIGSA” value ([15]; 80 g/ha) was 80%. The “Pre-emergence efficacy against DIGSA” value ([15]; 320 g/ha) was 100%, the “Pre-emergence efficacy against ECHCG” value [16] was 90% and the “Pre-emergence efficacy against LOLRI” value (Lolium rigidum (LOLRI) [17]) was 80%. The “Pre-emergence efficacy against SETVI” value (Setaria viridis (SETVI) [18]) was 100%, the “Pre-emergence efficacy against VERPE” value (Veronica persica (VERPE) [19]) was 90% and the “Pre-emergence efficacy against VIOTR in %” value (Viola tricolor (VIOTR) [20]; application rate 80 g/ha) was 90%. The “Pre-emergence efficacy against VIOTR in %” value (Viola tricolor (VIOTR) [20]; application rate 320 g/ha) was 100%, the “Pre-emergence efficacy against KCHSC in %” value (Kochia scoparia (KCHSC) [21]) was 80% and the “Pre-emergence efficacy against ZEAMX in %” value (Zea mays (ZEAMX) [22]; application rate 80 g/ha) was 0%. The “Pre-emergence efficacy against ZEAMX in %” value (Zea mays (ZEAMX) [22]; application rate 320 g/ha) was 0%, the “Post-emergence efficacy against ABUTH in %” value [23] was 80% and the “Post-emergence efficacy against AMARE in %” value ([24]; application rate 80 g/ha) was 90%. For the same molecule, the “Post-emergence efficacy against AMARE in %” value ([24]; application rate 320 g/ha) was 100%, the “Post-emergence efficacy against ECHCG in %” value [25] was 80% and the “Post-emergence efficacy against PHBPU in %” value [26] was 100%. For the same molecule, the “Post-emergence efficacy against VERPE in %” value (Veronica persica (VERPE) [27]; application rate 80 g/ha) was 80%, the “Post-emergence efficacy against VERPE in %” value (Veronica persica (VERPE) [27]; application rate 320 g/ha) was 100% and the “Post-emergence efficacy against VIOTR in %” value (Viola tricolor (VIOTR) [28]) was 100%. The “Post-emergence efficacy against KCHSC in %” value (Kochia scoparia (KCHSC) [29]) was 80%, the “Post-emergence efficacy against ZEAMX in %” value (Zea mays (ZEAMX) [30]; application rate 80 g/ha) was 10% and the “Post-emergence efficacy against ZEAMX in %” value (Zea mays (ZEAMX) [30]; application rate 320 g/ha) was 20%. For the same molecule, the “Post-emergence efficacy against TRZAS in %” value ([31]; application rate 80 g/ha) was 0% and the “Post-emergence efficacy against TRZAS in %” value ([31]; application rate 320 g/ha) was 20%.

Source: patent US20240174618A1, “SUBSTITUTED (2-HETEROARYLOXYPHENYL)SULFONATES, SALTS THEREOF AND THEIR USE AS HERBICIDAL AGENTS” (Bayer Aktiengesellschaft, priority 2021, published 2024)
